Source: US9492471B2, “Methods of treating a disease or disorder associated with Bruton'S Tyrosine Kinase” (Celgene Avilomics Research, Inc., priority 2013, dated 2016)
Where two headings read alike, the source gives them in different places.

What was measured:
Test in all cases: HotSpot kinase profiling
Assay type in all cases: biochemical
PBK/TOPK = molecular target: T1, PBK/TOPK (Homo sapiens, UniProt Q96KB5)
T1 construct: purchased Reaction Biology Corp
T1 sequence (Q96KB5 1-322): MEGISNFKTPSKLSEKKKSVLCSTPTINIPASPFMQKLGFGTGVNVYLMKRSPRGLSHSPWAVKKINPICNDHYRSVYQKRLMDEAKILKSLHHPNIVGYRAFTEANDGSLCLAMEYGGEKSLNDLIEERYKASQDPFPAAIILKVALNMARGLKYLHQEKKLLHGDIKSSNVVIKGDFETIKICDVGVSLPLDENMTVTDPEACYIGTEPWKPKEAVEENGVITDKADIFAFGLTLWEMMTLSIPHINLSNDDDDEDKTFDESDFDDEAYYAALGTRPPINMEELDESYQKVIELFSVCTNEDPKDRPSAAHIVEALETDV
How it was run: (§1)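 Percent inhibition, averaged when run more than once and referenced to a DMSO negative control, came from a radioactive filter-binding readout on P81 paper. Reactions of kinase with freshly made substrate and cofactors ran for 2 h at room temperature.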

SNARK/NUAK2 = molecular target: T2, SNARK/NUAK2 (Homo sapiens, UniProt Q9H093)
T2 construct: purchased Reaction Biology Corp
T2 sequence (Q9H093 1-628): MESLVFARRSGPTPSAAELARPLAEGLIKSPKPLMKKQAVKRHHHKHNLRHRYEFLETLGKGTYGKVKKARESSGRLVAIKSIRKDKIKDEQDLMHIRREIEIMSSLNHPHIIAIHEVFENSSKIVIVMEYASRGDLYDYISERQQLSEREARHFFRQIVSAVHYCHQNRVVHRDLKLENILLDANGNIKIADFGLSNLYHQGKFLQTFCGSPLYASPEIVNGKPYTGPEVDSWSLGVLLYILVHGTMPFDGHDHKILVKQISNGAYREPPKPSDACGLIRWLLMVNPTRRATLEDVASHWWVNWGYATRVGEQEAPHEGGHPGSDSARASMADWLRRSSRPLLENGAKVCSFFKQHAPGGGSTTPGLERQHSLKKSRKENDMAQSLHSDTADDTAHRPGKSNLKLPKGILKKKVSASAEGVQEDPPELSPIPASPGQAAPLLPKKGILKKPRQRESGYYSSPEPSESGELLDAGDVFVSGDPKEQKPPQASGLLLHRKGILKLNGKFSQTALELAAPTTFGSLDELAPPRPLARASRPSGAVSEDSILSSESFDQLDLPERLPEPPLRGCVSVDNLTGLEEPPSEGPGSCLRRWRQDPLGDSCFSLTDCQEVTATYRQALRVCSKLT
How it was run: as §1

CK1g1 = molecular target: T3, CK1g1 (Homo sapiens, UniProt Q9HCP0)
T3 construct: purchased Reaction Biology Corp
T3 sequence (Q9HCP0 whole entry): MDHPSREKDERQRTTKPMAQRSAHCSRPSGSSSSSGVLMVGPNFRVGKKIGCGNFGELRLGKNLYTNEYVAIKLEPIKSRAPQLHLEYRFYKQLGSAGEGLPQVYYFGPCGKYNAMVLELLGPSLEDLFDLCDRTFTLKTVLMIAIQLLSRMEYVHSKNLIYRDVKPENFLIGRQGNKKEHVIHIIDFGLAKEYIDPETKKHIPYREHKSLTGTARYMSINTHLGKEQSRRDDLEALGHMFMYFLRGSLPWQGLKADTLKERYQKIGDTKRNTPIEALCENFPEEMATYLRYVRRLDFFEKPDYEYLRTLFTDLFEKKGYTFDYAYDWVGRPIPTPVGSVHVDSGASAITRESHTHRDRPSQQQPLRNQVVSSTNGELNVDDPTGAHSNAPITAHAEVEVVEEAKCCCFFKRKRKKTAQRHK
How it was run: as §1

SGK3/SGKL = molecular target: T4, SGK3/SGKL (Homo sapiens, UniProt Q96BR1)
T4 construct: purchased Reaction Biology Corp
T4 sequence (Q96BR1 1-496): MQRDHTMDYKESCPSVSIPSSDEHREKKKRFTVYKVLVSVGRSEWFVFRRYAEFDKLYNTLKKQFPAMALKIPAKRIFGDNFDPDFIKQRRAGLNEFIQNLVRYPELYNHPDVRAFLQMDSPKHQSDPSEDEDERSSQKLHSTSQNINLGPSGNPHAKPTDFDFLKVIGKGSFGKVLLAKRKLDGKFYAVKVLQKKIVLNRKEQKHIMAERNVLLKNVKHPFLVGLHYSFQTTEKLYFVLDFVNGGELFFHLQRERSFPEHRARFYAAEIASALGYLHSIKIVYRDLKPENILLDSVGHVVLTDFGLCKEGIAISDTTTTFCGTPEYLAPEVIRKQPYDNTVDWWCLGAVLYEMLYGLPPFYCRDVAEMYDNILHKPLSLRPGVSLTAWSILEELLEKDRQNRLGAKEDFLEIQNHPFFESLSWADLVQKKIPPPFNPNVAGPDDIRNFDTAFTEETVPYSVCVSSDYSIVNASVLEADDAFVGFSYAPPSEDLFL
How it was run: as §1

CK1g3 = molecular target: T5, CK1g3 (Homo sapiens, UniProt Q9Y6M4)
T5 construct: purchased Reaction Biology Corp
T5 sequence (Q9Y6M4 whole entry): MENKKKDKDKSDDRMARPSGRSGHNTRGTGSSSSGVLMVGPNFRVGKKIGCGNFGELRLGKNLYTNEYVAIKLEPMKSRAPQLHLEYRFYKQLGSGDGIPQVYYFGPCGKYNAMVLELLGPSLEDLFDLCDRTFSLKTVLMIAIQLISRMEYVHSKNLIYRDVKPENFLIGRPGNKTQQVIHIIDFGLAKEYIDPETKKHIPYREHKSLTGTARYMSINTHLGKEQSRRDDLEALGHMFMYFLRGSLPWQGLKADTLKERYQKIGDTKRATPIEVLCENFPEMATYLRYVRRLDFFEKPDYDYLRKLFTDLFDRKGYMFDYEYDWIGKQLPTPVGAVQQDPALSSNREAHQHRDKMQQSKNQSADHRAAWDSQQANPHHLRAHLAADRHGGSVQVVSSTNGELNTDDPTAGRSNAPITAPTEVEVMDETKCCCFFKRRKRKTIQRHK
How it was run: as §1

ACK1 = molecular target: T6, ACK1 (Homo sapiens, UniProt Q07912)
T6 construct: purchased Reaction Biology Corp
T6 sequence (Q07912 whole entry): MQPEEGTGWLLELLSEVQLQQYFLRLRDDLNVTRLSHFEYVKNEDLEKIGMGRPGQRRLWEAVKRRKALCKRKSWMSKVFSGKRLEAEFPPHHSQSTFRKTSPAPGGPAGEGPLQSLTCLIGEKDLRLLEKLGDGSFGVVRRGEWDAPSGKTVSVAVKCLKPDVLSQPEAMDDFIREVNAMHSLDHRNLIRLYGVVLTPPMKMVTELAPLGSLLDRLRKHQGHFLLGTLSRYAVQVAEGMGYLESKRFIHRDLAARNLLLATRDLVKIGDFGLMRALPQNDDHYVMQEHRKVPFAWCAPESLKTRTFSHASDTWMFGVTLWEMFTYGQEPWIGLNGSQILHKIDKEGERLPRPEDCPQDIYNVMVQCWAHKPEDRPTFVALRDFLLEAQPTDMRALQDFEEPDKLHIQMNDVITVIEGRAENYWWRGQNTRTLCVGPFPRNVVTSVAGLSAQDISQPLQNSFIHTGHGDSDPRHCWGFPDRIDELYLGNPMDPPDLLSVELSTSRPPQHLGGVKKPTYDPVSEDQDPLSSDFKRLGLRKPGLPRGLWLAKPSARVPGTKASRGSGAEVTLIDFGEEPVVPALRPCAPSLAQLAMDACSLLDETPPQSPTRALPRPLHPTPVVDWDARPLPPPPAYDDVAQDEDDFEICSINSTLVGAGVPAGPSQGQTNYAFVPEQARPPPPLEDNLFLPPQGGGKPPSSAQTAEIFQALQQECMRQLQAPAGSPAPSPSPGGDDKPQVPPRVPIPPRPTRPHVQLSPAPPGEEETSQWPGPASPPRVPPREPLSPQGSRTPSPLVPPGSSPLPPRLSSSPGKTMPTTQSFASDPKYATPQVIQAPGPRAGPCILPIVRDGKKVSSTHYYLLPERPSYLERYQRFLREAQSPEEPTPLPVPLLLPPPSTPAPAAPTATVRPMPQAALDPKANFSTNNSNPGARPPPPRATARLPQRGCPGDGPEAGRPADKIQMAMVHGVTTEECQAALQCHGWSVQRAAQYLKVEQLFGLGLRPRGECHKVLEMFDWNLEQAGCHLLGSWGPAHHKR
How it was run: as §1

FLT1/VEGFR1 = molecular target: T7, FLT1/VEGFR1 (Homo sapiens, UniProt P17948)
T7 construct: purchased Reaction Biology Corp
T7 sequence (P17948 27-1338): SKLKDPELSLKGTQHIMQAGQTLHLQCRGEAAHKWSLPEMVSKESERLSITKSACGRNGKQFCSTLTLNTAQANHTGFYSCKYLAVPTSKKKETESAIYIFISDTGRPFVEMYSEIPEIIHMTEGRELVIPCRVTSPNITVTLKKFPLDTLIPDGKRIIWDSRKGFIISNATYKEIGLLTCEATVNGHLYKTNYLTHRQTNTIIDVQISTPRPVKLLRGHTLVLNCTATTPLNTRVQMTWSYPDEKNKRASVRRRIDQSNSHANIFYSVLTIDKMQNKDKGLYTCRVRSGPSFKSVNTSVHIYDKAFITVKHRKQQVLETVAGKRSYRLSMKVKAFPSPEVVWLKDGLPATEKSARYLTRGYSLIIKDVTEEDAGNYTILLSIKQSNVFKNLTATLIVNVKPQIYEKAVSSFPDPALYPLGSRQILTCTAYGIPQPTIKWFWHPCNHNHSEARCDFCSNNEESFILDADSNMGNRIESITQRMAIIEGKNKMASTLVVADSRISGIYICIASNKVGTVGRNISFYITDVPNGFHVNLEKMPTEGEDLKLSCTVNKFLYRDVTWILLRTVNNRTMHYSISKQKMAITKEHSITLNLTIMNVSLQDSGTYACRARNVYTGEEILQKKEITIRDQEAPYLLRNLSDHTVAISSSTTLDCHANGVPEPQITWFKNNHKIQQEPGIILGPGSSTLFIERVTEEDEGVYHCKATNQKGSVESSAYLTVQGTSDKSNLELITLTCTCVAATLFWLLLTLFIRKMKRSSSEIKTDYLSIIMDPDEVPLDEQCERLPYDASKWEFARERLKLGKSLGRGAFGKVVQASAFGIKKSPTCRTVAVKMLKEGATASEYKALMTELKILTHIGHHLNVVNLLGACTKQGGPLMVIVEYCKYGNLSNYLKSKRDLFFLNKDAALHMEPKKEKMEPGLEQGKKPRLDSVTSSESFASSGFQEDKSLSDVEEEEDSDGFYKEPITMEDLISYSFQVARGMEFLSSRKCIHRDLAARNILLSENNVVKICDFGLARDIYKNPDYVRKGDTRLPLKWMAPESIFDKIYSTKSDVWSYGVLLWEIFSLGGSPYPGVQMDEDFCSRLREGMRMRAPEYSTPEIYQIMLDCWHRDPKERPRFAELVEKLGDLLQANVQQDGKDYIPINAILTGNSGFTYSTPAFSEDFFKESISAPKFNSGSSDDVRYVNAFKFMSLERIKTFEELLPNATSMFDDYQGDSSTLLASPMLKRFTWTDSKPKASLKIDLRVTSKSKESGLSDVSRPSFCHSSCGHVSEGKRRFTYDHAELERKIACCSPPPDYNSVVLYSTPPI
How it was run: as §1

[1] = read-out: % Enzyme Activity (relative to DMSO controls) Run 1
[2] = read-out: % Enzyme Activity (relative to DMSO controls) Run 2

In the case of `C=CC(=O)Nc1cccc(Nc2nc(Nc3ccc(OCCOC)c(F)c3)ncc2F)c1` [Compound 2], the inhibition at 3 µM (PBK/TOPK) was 3.07%, the remaining activity at 3 µM (PBK/TOPK; [1]) was 98.6% and the remaining activity at 3 µM (PBK/TOPK; [2]) was 95.3%. It also gave an inhibition at 3 µM (SNARK/NUAK2) of 15.7%, a remaining activity at 3 µM (SNARK/NUAK2; [1]) of 83.7% and a remaining activity at 3 µM (SNARK/NUAK2; [2]) of 84.9%. For the same compound, the inhibition at 3 µM (CK1g1) was 10.5%, the remaining activity at 3 µM (CK1g1; [1]) was 88.8% and the remaining activity at 3 µM (CK1g1; [2]) was 90.3%. It also gave an inhibition at 3 µM (SGK3/SGKL) of -2.42%, a remaining activity at 3 µM (SGK3/SGKL; [1]) of 99.5% and a remaining activity at 3 µM (SGK3/SGKL; [2]) of 105%. For the same compound, the inhibition at 3 µM (CK1g3) was 15%, the remaining activity at 3 µM (CK1g3; [1]) was 84.2% and the remaining activity at 3 µM (CK1g3; [2]) was 85.8%. For the same compound, the inhibition at 3 µM (ACK1) was 77.5%, the remaining activity at 3 µM (ACK1; [1]) was 22.6% and the remaining activity at 3 µM (ACK1; [2]) was 22.5%. It also gave an inhibition at 3 µM (FLT1/VEGFR1) of 18.6%, a remaining activity at 3 µM (FLT1/VEGFR1; [1]) of 83.6% and a remaining activity at 3 µM (FLT1/VEGFR1; [2]) of 79.2%.
